Measurements reported in PubChem BioAssay AID256 (DTP/NCI, 2004).
Values joined by “and” are separate entries in the source; they are usually repeats but may differ in a detail not shown here. Identical values can stand only once. Inconclusive results and toxic doses are left out.

System: CD2F1 mice, L1210 leukemia ip, survival T/C
Experiment: NCI In Vivo Anticancer Drug Screen. Data for tumor model L1210 Leukemia (intraperitoneal) in CD2F1 (CDF1) mice
Details: endpoint: mean survival time, higher = longer survival
Procedure, shortened: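 Implant tumor; dose compound or vehicle; measure endpoint in both groups; report treated divided by control.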

[1] = dose: 12.5 mg/kg/injection, schedule: Q04DX003 (ip), vehicle: saline
[2] = dose: 25.0 mg/kg/injection, schedule: Q04DX003 (ip), vehicle: saline
[3] = dose: 100.0 mg/kg/injection, schedule: Q01DX009 (ip), vehicle: saline with Tween-80
[4] = dose: 200.0 mg/kg/injection, schedule: Q01DX009 (ip), vehicle: saline with Tween-80
[5] = dose: 400.0 mg/kg/injection, schedule: Q01DX009 (ip), vehicle: saline with Tween-80
[6] = dose: 100.0 mg/kg/injection, schedule: Q04DX003 (ip), vehicle: saline with Tween-80
[7] = dose: 200.0 mg/kg/injection, schedule: Q04DX003 (ip), vehicle: saline with Tween-80
[8] = dose: 400.0 mg/kg/injection, schedule: Q04DX003 (ip), vehicle: saline with Tween-80
[9] = dose: 50.0 mg/kg/injection, schedule: Q01DX009 (ip), vehicle: saline with Tween-80
[10] = dose: 100.0 mg/kg/injection, schedule: Q04DX002 (ip), vehicle: saline with Tween-80
[11] = dose: 200.0 mg/kg/injection, schedule: Q04DX002 (ip), vehicle: saline with Tween-80
[12] = dose: 100.0 mg/kg/injection, schedule: Q01DX001 (ip), vehicle: saline
[13] = dose: 200.0 mg/kg/injection, schedule: Q01DX001 (ip), vehicle: saline
[14] = dose: 400.0 mg/kg/injection, schedule: Q01DX001 (ip), vehicle: saline
[15] = dose: 100.0 mg/kg/injection, schedule: Q01DX001 (ip), vehicle: saline with Tween-80
[16] = dose: 200.0 mg/kg/injection, schedule: Q01DX001 (ip), vehicle: saline with Tween-80
[17] = dose: 400.0 mg/kg/injection, schedule: Q01DX001 (ip), vehicle: saline with Tween-80
[18] = dose: 25.0 mg/kg/injection, schedule: Q01DX009 (ip), vehicle: water
[19] = dose: 50.0 mg/kg/injection, schedule: Q01DX009 (ip), vehicle: water
[20] = dose: 100.0 mg/kg/injection, schedule: Q01DX009 (ip), vehicle: water

`O=C(O)CCCSc1nn(C2OC(CO)C(O)C2O)c(=O)[nH]c1=O` (stereo unspecified) was tested, and the T/C (dose: 12.5 mg/kg/injection, schedule: Q01DX005 (ip), vehicle: water) was 104 % of control, the T/C (dose: 25.0 mg/kg/injection, schedule: Q01DX005 (ip), vehicle: water) was 104 % of control and the T/C (dose: 50.0 mg/kg/injection, schedule: Q01DX005 (ip), vehicle: water) was 104 % of control. For the same compound, the T/C (dose: 100.0 mg/kg/injection, schedule: Q01DX005 (ip), vehicle: water) was 101 % of control and the T/C (dose: 200.0 mg/kg/injection, schedule: Q01DX005 (ip), vehicle: water) was 101 % of control.
In the case of `O=CN(O)CC(=O)O.[Ni]`, the T/C [1] is reported as 102 % of control and the T/C [2] is reported as 102 % of control.
In the case of `COC(=O)C1=C(C)NC(=O)NC1c1ccccc1` (stereo unspecified), the T/C [3] is reported as 95 % of control, the T/C [4] is reported as 97 % of control and the T/C [5] is reported as 97 % of control.
With `COC(=O)C1C2CC(C(Br)C2Br)C1C(=O)O` (stereo unspecified) the T/C [3] was 96 % of control, the T/C [6] was 96 % of control and the T/C [4] was 98 % of control. For the same compound, the T/C [7] was 96 % of control and 94 % of control, the T/C [5] was 97 % of control and the T/C [8] was 88 % of control and 98 % of control.
For `CC(C(=O)O)C(=O)O.[NH-]CC[NH-].[Pt+2]`, the T/C (dose: 60.0 mg/kg/injection, schedule: Q04DX003 (ip), vehicle: water) was 116 % of control.
`NNc1ccc(-c2ccc(NN)cc2)cc1` was tested, and the T/C [3] was 101 % of control, the T/C [4] was 95 % of control and the T/C [5] was 96 % of control.
For `Nc1c2ccccc2c[n+]2ccccc12`, the T/C [1] was 112 % of control, the T/C [2] was 124 % of control and the T/C (dose: 50.0 mg/kg/injection, schedule: Q04DX003 (ip), vehicle: saline) was 114 % of control. The T/C (dose: 100.0 mg/kg/injection, schedule: Q04DX003 (ip), vehicle: saline) was 121 % of control.
In the case of `Oc1c(C(c2ccccc2)N2CCOCC2)ccc2ccccc12` (stereo unspecified), the T/C [9] is reported as 94 % of control, the T/C [3] is reported as 102 % of control and the T/C [6] is reported as 95 % of control. For the same compound, the T/C [4] was 98 % of control and the T/C [7] was 103 % of control.
In the case of `CCOCc1cc(C)[nH]c(=O)c1C#N`, the T/C [6] is reported as 96 % of control and the T/C [7] is reported as 98 % of control.
For `CCCCCCCCCCCCCCCCCCNC(=O)Nc1ccc(CC)cc1`, the T/C [3] was 98 % of control, the T/C [6] was 94 % of control and the T/C [4] was 109 % of control. For the same compound, the T/C [7] was 89 % of control, the T/C [5] was 110 % of control and the T/C [8] was 93 % of control.
`CCCCCCCC/C=C\CCCCCCCC(=O)OCCCCCC` was tested, and the T/C [10] was 91 % of control, the T/C [11] was 102 % of control and the T/C (dose: 400.0 mg/kg/injection, schedule: Q04DX002 (ip), vehicle: saline with Tween-80) was 95 % of control.
In the case of `Cc1cc(-c2ccccc2)c2c(C#N)cn(-c3ccccc3)c2n1`, the T/C [12] is reported as 87 % of control, the T/C [13] is reported as 92 % of control and the T/C [14] is reported as 92 % of control.
With `CC(O)C[As](=O)(O)c1ccc(Cl)cc1` (stereo unspecified) the T/C (dose: 6.25 mg/kg/injection, schedule: Q04DX003 (ip), vehicle: saline with Tween-80) was 95 % of control, the T/C (dose: 12.5 mg/kg/injection, schedule: Q04DX003 (ip), vehicle: saline with Tween-80) was 107 % of control and the T/C (dose: 25.0 mg/kg/injection, schedule: Q04DX003 (ip), vehicle: saline with Tween-80) was 107 % of control.
In the case of `O=S(=O)(O)O.[Fe]`, the T/C (dose: 50.0 mg/kg/injection, schedule: Q01DX009 (ip), vehicle: saline sonified) is reported as 86 % of control, the T/C [6] is reported as 96 % of control and the T/C [7] is reported as 88 % of control.
With `Nc1nc2c(ncn2-c2cccc(NC(=O)c3cccc(S(=O)(=O)F)c3)c2)c(=O)[nH]1` the T/C (dose: 50.0 mg/kg/injection, schedule: Q04DX002 (ip), vehicle: saline with Tween-80) was 108 % of control, the T/C [10] was 94 % of control and the T/C [11] was 90 % of control.
With `CN(C)N=Nc1cccc(Cl)c1` the T/C (dose: 79.0 mg/kg/injection, schedule: Q01DX009 (ip), vehicle: Klucel (hydroxypropylcellulose) (HPC)) was 111 % of control, the T/C (dose: 118.0 mg/kg/injection, schedule: Q01DX009 (ip), vehicle: Klucel (hydroxypropylcellulose) (HPC)) was 108 % of control and the T/C (dose: 177.0 mg/kg/injection, schedule: Q01DX009 (ip), vehicle: Klucel (hydroxypropylcellulose) (HPC)) was 123 % of control. The T/C (dose: 266.0 mg/kg/injection, schedule: Q01DX009 (ip), vehicle: Klucel (hydroxypropylcellulose) (HPC)) was 108 % of control.
In the case of `O=C1C2C3C=CC(O3)C2C(=O)N1Cc1ccncc1` (stereo unspecified), the T/C [12] is reported as 108 % of control, the T/C [13] is reported as 100 % of control and the T/C [14] is reported as 101 % of control.
`c1ccc2c(c1)CCc1ccccc1N2` was tested, and the T/C [15] was 100 % of control, the T/C [16] was 100 % of control and the T/C [17] was 91 % of control.
With `Nc1nc2c(ncn2-c2ccc(NC(=O)c3cccc(S(=O)(=O)F)c3)cc2)c(=O)[nH]1` the T/C (dose: 37.5 mg/kg/injection, schedule: Q04DX002 (ip), vehicle: saline with Tween-80) was 90 % of control, the T/C (dose: 75.0 mg/kg/injection, schedule: Q04DX002 (ip), vehicle: saline with Tween-80) was 111 % of control and the T/C (dose: 150.0 mg/kg/injection, schedule: Q04DX002 (ip), vehicle: saline with Tween-80) was 94 % of control.
For `CC(=O)Nc1cc(Cl)ccc1C(=O)O`, the T/C [9] was 96 % of control, the T/C [3] was 98 % of control and the T/C [4] was 100 % of control.
`CC1=CSCC(=O)N1` was tested, and the T/C [6] was 101 % of control, the T/C [7] was 98 % of control and the T/C [8] was 108 % of control.
`CC(=O)OC(c1ccccc1)C(C)C(O)(C(F)(F)F)C(F)(F)F` (stereo unspecified) was tested, and the T/C [15] was 98 % of control, the T/C [16] was 87 % of control and the T/C [17] was 95 % of control.
`COc1cccc(C(=O)c2ccncc2C)c1OC` was tested, and the T/C (dose: 12.5 mg/kg/injection, schedule: Q01DX009 (ip), vehicle: water) was 89 % of control, the T/C [18] was 93 % of control and the T/C [19] was 93 % of control. For the same compound, the T/C [20] was 93 % of control and the T/C (dose: 200.0 mg/kg/injection, schedule: Q01DX009 (ip), vehicle: water) was 96 % of control.
With `CC(=O)Oc1ccc(Cl)cc1` the T/C [3] was 95 % of control, the T/C [6] was 103 % of control and the T/C [4] was 98 % of control. For the same compound, the T/C [7] was 89 % of control and the T/C [8] was 89 % of control.
For `Cn1c(=O)c2c(nc(Br)n2CC(O)CF)n(C)c1=O` (stereo unspecified), the T/C (dose: 12.5 mg/kg/injection, schedule: Q01DX005 (ip), vehicle: distilled water + Tween-80) was 101 % of control, the T/C (dose: 25.0 mg/kg/injection, schedule: Q01DX005 (ip), vehicle: distilled water + Tween-80) was 98 % of control and the T/C (dose: 50.0 mg/kg/injection, schedule: Q01DX005 (ip), vehicle: distilled water + Tween-80) was 98 % of control. The T/C (dose: 100.0 mg/kg/injection, schedule: Q01DX005 (ip), vehicle: distilled water + Tween-80) was 101 % of control and the T/C (dose: 200.0 mg/kg/injection, schedule: Q01DX005 (ip), vehicle: distilled water + Tween-80) was 96 % of control.
`Cc1c(Cl)ccc(Cl)c1Cl` was tested, and the T/C (dose: 100.0 mg/kg/injection, schedule: Q01DX009 (ip), vehicle: saline sonified) was 105 % of control, the T/C (dose: 100.0 mg/kg/injection, schedule: Q04DX003 (ip), vehicle: saline sonified) was 104 % of control and the T/C (dose: 200.0 mg/kg/injection, schedule: Q01DX009 (ip), vehicle: saline sonified) was 100 % of control. For the same compound, the T/C (dose: 200.0 mg/kg/injection, schedule: Q04DX003 (ip), vehicle: saline sonified) was 101 % of control, the T/C (dose: 400.0 mg/kg/injection, schedule: Q01DX009 (ip), vehicle: saline sonified) was 102 % of control and the T/C (dose: 400.0 mg/kg/injection, schedule: Q04DX003 (ip), vehicle: saline sonified) was 106 % of control.
With `CCCCCCCC(=O)OCC(=O)[C@]1(O)Cc2c(O)c3c(c(O)c2[C@@H](OC2CC(N)C(O)C(C)O2)C1)C(=O)c1c(OC)cccc1C3=O` (stereo partly specified) the T/C (dose: 0.5 mg/kg/injection, schedule: Q01DX009 (ip), vehicle: water) was 117 % of control, the T/C (dose: 2.0 mg/kg/injection, schedule: Q01DX009 (ip), vehicle: saline sonified) was 153 % of control and the T/C (dose: 2.0 mg/kg/injection, schedule: Q01DX009 (ip), vehicle: saline with Tween-80) was 211 % of control. The T/C (dose: 2.0 mg/kg/injection, schedule: Q01DX009 (ip), vehicle: water) was 151 % of control, the T/C (dose: 3.0 mg/kg/injection, schedule: Q04DX003 (ip), vehicle: saline with Tween-80) was 164 % of control and the T/C (dose: 8.0 mg/kg/injection, schedule: Q01DX009 (ip), vehicle: saline with Tween-80) was 90 % of control. For the same compound, the T/C (dose: 20.0 mg/kg/injection, schedule: Q01DX001 (ip), vehicle: saline with Tween-80) was 161 % of control and the T/C (dose: 20.0 mg/kg/injection, schedule: Q04DX003 (ip), vehicle: saline with Tween-80) was 104 % of control.
In the case of `Cc1c[n+]([O-])ccc1Br`, the T/C [18] is reported as 94 % of control, the T/C [19] is reported as 100 % of control and the T/C [20] is reported as 88 % of control.
